In patent US7666414B2, “Methods for treating prostate cancer using modified antibodies to prostate-specific membrane antigen” (Cornell Research Foundation, Inc., priority 2001, dated 2010):
Where two headings read alike, the source gives them in different places.

What was measured:
LNCaP cells = assay: Immunoreactivity by the method of Lindmo; parameters: species or system human; settings: 111In labeled, binding extrapolated to infinite antigen excess
Description: The solutions were incubated at 4° C. for 60 minutes prior to being isolated (by centrifugation) and washed with ice cold PBS. The membranes were then counted in a gamma counter with standards representing the total radioactivity added. The data was plotted using the Lindmo method as the reciprocal of the substrate concentration α-axis) against the reciprocal of the fraction bound (y-axis). The data was then fitted according to a least squares linear regression method (Sigma Plot) and the y intercept taken as the reciprocal of the immunoreactivity. A similar method using membranes derived from LNCaP cells, and subsequent centrifugation isolation of the membranes, gave similar results. The results gave an average immunoreactivity of 72% (see Table 11).
Briefly five test solutions were prepared (in duplicate) containing 10,000 cpm of ^111Indium labeled-DOTA-deJ591 and various amounts of LNCaP cells or cell membranes, in a total test volume of 250 μL of 0.2% BSA 10 mM HEPES. The solutions were incubated at 4° C. for 60 minutes prior to being isolated (by centrifugation) and washed with ice cold PBS. The membranes were then counted in a gamma counter with standards representing the total radioactivity added. The data was plotted using the Lindmo method as the reciprocal of the substrate concentration α-axis) against the reciprocal of the fraction bound (y-axis). The data was then fitted according to a least squares linear regression method (Sigma Plot) and the y intercept used as the reciprocal of the immunoreactivity. The target for immunoreactivity was not less than 75%.

[1] = system: vascular endothelium of solid tumors; assay: Phase I trial of 111In-DOTA-deJ591 in refractory solid tumor malignancies; type: in vivo; settings: for Plasma clearance (T1/2): human
Description: Eligible patients were those with refractory solid tumor malignancies whose tumor types are known to express PSMA on the neovasculature.
Patients the participated in the study included eight renal cell cancer patients, four bladder cancer patients, two colon cancer patients, and one pancreas cancer patient.

[2] = system: hormone refractory prostate cancer; type: in vivo, human
Description: All patients had rising PSA levels on three consecutive measurements.

[3] = system: recurrent, progressing prostate cancer; assay: Phase I trial of 111In-DOTA-deJ591, four weekly doses; type: in vivo, human
Description: Patients with recurrent, progressing prostate cancer received four weekly doses of ^111In-DOTA-deJ591. Doses were escalated in cohorts of three patients and ranged from 62.5-500 mg/m2 (total). […] After the first dose, patients were imaged on the day of injection (day 0) and days 1, 2, 4 and 7.
Serum PK, immune reaction and toxicity were evaluated after each dose for a minimum of 12 weeks.

[4] = system: PSMA-positive human LNCaP tumors; assay: Biodistribution of 131I labeled MAbs in nude mice bearing LNCaP tumors; settings: mouse, in vivo
Description: (§1) Prior to use, the cells were trypsinized, counted and suspended in Matrigel (Collaborative Biomedical Products, Bedford, Mass.). Nu/Nu Balb C mice 8-10 weeks of age were inoculated, in the right and left flanks, with a suspension of 5×10^6 LNCaP cells in Matrigel (BD Biosciences, Bedford Mass.). After a period of 14-18 days, tumors (100-300 mg) had developed. The PSMA-negative DU145 and PC3 cells were implanted in nude mice in an identical manner.
(§2) The PSMA-positive and PSMA-negative tumor bearing mice were injected, via the tail vein, with 80 KBq of the iodinated MAb (400 MBq/mg) in 200 μL of PBS (pH 7.4, 0.2% BSA). Groups of animals (3-8/group) were sacrificed after 2, 4 or 6 days. The major organs and tumors were recovered. The tissue samples were weighed and counted, with appropriate standards in an automatic NaI(Tl) counter. These measured relative activity data (cpm) were background corrected and expressed as a percentage of the injected dose per gram (% ID/g). […] J415, J591 and 7E11 were labeled with ^111In (100 MBq/mg). 80 KBq of the ^111In labeled MAbs were injected in groups of animals. The % ID/g in various organs and tumor tissues was determined at 2-6 days post injection in a similar way as described for ^131I labeled MAbs.

prostate cancer = settings: in vivo
Description: A single patient was treated with mAb deJ591. This patient had bulky, poorly differentiated prostate cancer and had failed multiple courses of external beam radiotherapy as well as multiple forms of hormonal and non-hormonal chemotherapy. […] Four doses (#1, 3, 6 and 11) were trace-radiolabeled with either ^131Iodine or ^111Indium for pharmacokinetic determinations and biodistribution. The mean effective serum residence time of ^131I-deJ591 ranged from 31.9 to 51.3 hours, depending on the dose. Tumor localization to known tumor sites was excellent after each of the radiolabeled doses over the five month period. Dose twelve was radiolabeled with a therapeutic quantity of ^90Yttrium (19mCi) calculated to deliver less than a 150 rad dose to the blood. This dose was determined in consultation with the FDA and took into account prior radiotherapy delivered by external beam and by 131 Iodine. […] The patient's platelet count dropped to 64,000 (normal: 150,000-300,000) at five weeks post ^90Y-DOTA-deJ591 administration (as an anticipated result of radiation to the bone marrow) prior to spontaneously returning to normal levels. […] The patient experienced no side effects. The patient's PSA declined from 63 at the time of deJ591-DOTA-9Y administration to 36. […] This patient succumbed to their metastatic prostate cancer ten and one-half months after initiating treatment with ^90Y-DOTA-deJ591.

[5] = system: hormone-refractory prostate cancer metastases; assay: Nuclear imaging with 111In or 177Lu labeled deJ591 versus standard imaging; type: in vivo, human
Description: The antibody scans were compared to standard imaging studies (bone, CT or MR scans) obtained on each patient to assess the underlying sensitivity, specificity, and accuracy of deJ591 targeting to metastatic sites. Bony and soft tissue metastases were evaluated independently.

[6] = system: recurrent prostate cancer; assay: Phase II trial of deJ591 with low-dose subcutaneous IL-2; type: in vivo, human; settings: in combination with daily low-dose subcutaneous IL-2; six patients entered
Description: Patients receive daily low-dose subcutaneous rIL-2 (1.2×10^6 IU/m^2/day) on day 1 through day 56. […] IL-2 administration is continued during this period another two weeks afterwards. This 8-week regimen constitutes one cycle of therapy. Patients are evaluated for response at the end of one cycle. Patients who have responded to therapy or have stable disease are eligible for additional cycles of therapy. Additional cycles will be initiated when there is at least two consecutive rises in PSA at least 2 weeks apart. […] The dose of antibody will be adjusted based on additional data analysis of patients treated in this manner.

[7] = system: PSMA-positive human LNCaP tumors; parameters: species or system nude mice; settings: mouse, in vivo
Description: as §1, §2
For the imaging studies, animals were injected with 2 MBq of ^111In-DOTA-J591. […]

[8] = system: PSMA-positive CWR22 xenografts; assay: Efficacy in PSMA-positive CWR22 xenografts; type: in vivo, C.B-17 scid mice
Description: (§3) Experiment: Male SCID mice were implanted by serial passage of CWR22 prostate tumor xenograft. […] All treatments were given intravenously. Tumor growth and animal health were continually monitored throughout the study with tumor growth measured every 3 days.
Experiment: Male C.B-17 SCID mice bearing CWR22 xenografts approximately 200 mm^3 in size received IV injections (200 μL constant volume) of the test articles according to the dose and schedule as shown in Table 22.
Male C.B-17 scid mice bearing CWR22 xenografts approximately 200 mm^3 in size received IV injections (200 μL constant volume) of the test articles according to the dose and schedule shown in the Table 23.
The objective of this study was to determine how much the dosing interval could be increased at this dosage before a loss of efficacy in terms of TGD would be observed. […] The growth delays for the other schedules were: q7d, 53.0 days; q21d, 48.0 days; and q28d, 26.9 days. Similar to other studies using the CWR22 xenograft model, no curative responses were observed, with all tumors eventually resuming growth (FIG. 18).
as §3, with “intravenously and on a schedule of every three days for 5 doses.” for “intravenously.”
as §3, with “intravenously and on a schedule of every seven days for 5 doses.” for “intravenously.”

prostate tissue = assay: Immunohistochemistry of DOTA conjugated deJ591
Description: Immunohistochemistry was performed on the DOTA conjugated, partially purified, bulk intermediate deJ591.

[9] = target: prostate specific membrane antigen (Homo sapiens, UniProt Q04609); assay: Competitive binding sites on PSMA; settings: relative to J591, J533, E99 site
Description: To kill or ablate normal, benign hyperplastic, and cancerous prostate epithelial cells, a first antibody, e.g., a modified antibody, can be conjugated with a prodrug which is activated only when in close proximity with a prodrug activator. The prodrug activator is conjugated with a second antibody, e.g., a second modified antibody according to the present invention, preferably one that binds to a non-competing site on the prostate specific membrane antigen molecule. Whether two modified antibodies bind to competing or non-competing binding sites can be determined by conventional competitive binding assays. […] Monoclonal antibody J415, on the other hand, binds to a binding site that is non-competing with the site to which J591, J533, and E99 bind. Thus, for example, the first modified antibody can be one of J591, J533, and E99, and the second modified antibody can be J415. Alternatively, the first modified antibody can be J415, and the second modified antibody can be one of J591, J533, and E99. Drug-prodrug pairs suitable for use in the practice of the present invention are described in Blakely et al., “ZD2767, an Improved System for Antibody-directed Enzyme Prodrug Therapy That Results in Tumor Regressions in Colorectal Tumor Xenografts,” (1996) Cancer Research, 56:3287-3292, which is hereby incorporated by reference.

[10] = four weekly doses, 62.5-500 mg/m2 total

Chain of prostate specific membrane antigen (Q04609 whole entry): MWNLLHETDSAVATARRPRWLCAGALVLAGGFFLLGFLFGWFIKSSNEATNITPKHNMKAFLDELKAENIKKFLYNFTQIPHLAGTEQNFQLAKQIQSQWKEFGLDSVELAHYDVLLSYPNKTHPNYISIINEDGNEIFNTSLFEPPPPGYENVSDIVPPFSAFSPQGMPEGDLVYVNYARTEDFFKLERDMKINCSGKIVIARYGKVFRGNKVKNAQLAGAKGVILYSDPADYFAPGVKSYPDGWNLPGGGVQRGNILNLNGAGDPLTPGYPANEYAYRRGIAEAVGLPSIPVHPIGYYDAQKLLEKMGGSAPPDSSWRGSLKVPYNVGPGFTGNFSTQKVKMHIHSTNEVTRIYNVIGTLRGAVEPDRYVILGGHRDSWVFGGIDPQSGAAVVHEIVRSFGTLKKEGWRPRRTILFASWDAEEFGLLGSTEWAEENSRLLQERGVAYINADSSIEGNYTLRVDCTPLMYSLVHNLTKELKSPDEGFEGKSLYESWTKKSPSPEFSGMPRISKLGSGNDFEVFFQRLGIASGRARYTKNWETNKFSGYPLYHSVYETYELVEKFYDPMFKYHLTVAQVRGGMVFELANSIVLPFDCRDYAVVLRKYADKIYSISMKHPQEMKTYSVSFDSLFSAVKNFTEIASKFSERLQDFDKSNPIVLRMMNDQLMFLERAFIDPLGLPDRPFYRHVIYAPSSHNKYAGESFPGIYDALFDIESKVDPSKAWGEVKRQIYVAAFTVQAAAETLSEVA

## ^111In-DOTA-deJ591
LNCaP cells
  Immunoreactivity: 72%
[1]; 7 renal cell, 2 bladder, 1 colon cancer
  tumor targeting: ten of the fifteen patients
[1]; a colon cancer patient
  decline in CEA: 50%
[1]; in vivo
  false negative imaging: five of the fifteen patients
  objective responses: No objective responses occurred
[2]; four of twenty-two
  false negative imaging in patients who had imagable disease: 18%
[2]; human, in vivo, 20 mg
  Plasma clearance (T1/2): 34 ± 5 h
[2]; sixteen of twenty-two, 20 mg, 185 MBq
  tumor targeting in patients who had imagable disease: 72.7%
[3]; [10]
  immune reaction to the antibody: None of the patients developed an immune reaction to the antibody
  toxicity or side effects: Neither this latter patient nor the remaining thirteen patients experienced any toxicity or side effects
[3]; ten patients with positive bone scans
  mAb targeting to bony sites: all ten demonstrated excellent mAb targeting to bony sites
[3]; three patients with soft tissue disease on CT
  mAb targeting to soft tissue disease: two demonstrated mAb targeting to these sites

## deJ591: deimmunized form of murine anti-PSMA antibody J591, human IgG1/kappa constant regions, NS0 cell line ATCC PTA-3709
[4]
  blood activity: significantly lower compared to that of 7E11
  tumor uptake: 8.55±1.29 % injected dose/gram
Prostate cancer
  human anti-deimmunized antibody (immune) response: No detectable human anti-deimmunized antibody (immune) response developed
[1]; 5 mg
  Liver uptake: 28%+/−14
[1]; 10 mg
  Liver uptake: 17%+/−7
[1]; 20 mg
  Liver uptake: 13%+/−5
[1]; in vivo, 5 mg
  Plasma clearance (T1/2): 21 ± 11 h
[1]; in vivo, 10 mg
  Plasma clearance (T1/2): 24 ± 6 h
[1]; in vivo, 20 mg
  Plasma clearance (T1/2): 37 ± 8 h
[5]; eight out of nine
  patients with soft tissue masses accurately targeted: 89%
[5]; fifteen patients
  patients without documented soft tissue metastases with negative mAb scans: 100%
[5]; seven patients
  specificity, negative bone scans negative on the deJ591 scan: 100%
[5]; soft tissue and bony metastases
  concordance between standard imaging and mAb scans: 91%
[5]; twelve of fifteen
  patients with bone metastases on bone scan accurately targeted: 80%
[6]
  Toxicities: expected and minor
[7]
  blood activity: 2.52±0.16 % ID/g
[8]; Comparison II, 12.96 mg/kg, q3dX5
  Tumor Growth Delay: 1.9 days
[8]; every three days for 5 doses, IV, equimolar to 14.5 mg/kg deJ591-DM1
  effect on CWR22 xenograft tumor growth: no significant effect

## DOTA conjugated deJ591
LNCaP cells
  Immunoreactivity: 95%
LNCaP cells; listed as Lot 243101
  Immunoreactivity: 95%
LNCaP cells; listed as Lot BIOV983.2-2
  Immunoreactivity: 72%
Prostate tissue
  Immunohistochemistry specificity and reactivity: specific to prostate tissue and the reactivity was equivalent to the naked deJ591 antibody

## J591: murine monoclonal antibody to the extracellular domain of human PSMA, hybridoma ATCC HB-12126
[9]
  binding site on the prostate specific membrane antigen molecule: bind to competing binding sites
